{"source": "patent US6756368B1", "about": "“Use of cobalt chelates for treating or preventing virus infection” (The Trustees of Columbia University in the City of New York, priority 1999, dated 2004)", "key": {"[1]": {"tested_on": "293T cells", "experiment": "Cytotoxic effect of drug on 293T cells", "type": "cell-based", "conditions": "50 μg/ml, no virus", "method": "2 plates of cells were incub. In D2 media +50 μg/ml CTC96 (to see cytotoxic effect of drug on 293T cells)\nPlates containing 293T cells +or − 50 μg/lm CTC96 were examined\nplates containing 293T cells +or − CTC96 were examined"}, "[2]": {"tested_on": "varicella-zoster virus (VZV)", "experiment": "VZV infection of Helf cells, immunohistochemistry", "type": "cell-based, VZV strain Ellen", "method": "Helf cell monolayers seeded on two chambered slides were infected with 20 μl cell-associated VZV in 1% FBS DMEM in the presence and absence of 50 μg/ml CTC-96. At 28 h postinfection, the slides were washed twice with PBS, fixed in 3.7% formaldehyde in PBS for 30 min at room temperature, and washed again. The infected cells were washed twice with Tris-buffered saline (TBS) and incubated at −20° C. in −20° C. acetone for 10 min. Slides were washed twice with TBS, blocked with 1% goat serum (Sigma, St. Louis, Mo.) in TBS for 20 min at room temperature, and incubated in 200 μl 1:200 rabbit polyclonal anti-ORF 29 in 1% goat serum TBS for 30 min at room temperature. The slides were washed three times with TBS for 5 min each and then incubated with 200 μl 1:200 goat anti-rabbit IgG conjugated horseradish? peroxidase (Kirkegaard and Perry Laboratories Inc.) in 1% goat serum TBS for 30 min at room temperature. Slides were washed three times with TBS for 5 min each. The peroxidase was developed for 5 min using the commercial kit, Alkaline Phosphatase Substrate Kit III (Vector Laboratories Inc., Burlingame, Calif.) according to the manufacturer's directions and then washed several times with water. The slides were viewed with a Leitz Dialux microscope. Endocytosis assay. Vero cells seeded on cover slips were incubated at 37° C. in 5% BCS DMEM with and without 50 μg/ml CTC-96 for various times. […]"}, "[3]": {"tested_on": "HSV-1", "experiment": "Adsorption assay, 3H labeled HSV-1 binding to Vero cells", "conditions": "50 μg/ml, 4° C., MOI 100"}, "[4]": {"tested_on": "HSV-1", "conditions": "in vivo; cited from earlier work"}, "[5]": {"tested_on": "HSV-1", "experiment": "Accumulation of α4 and α27 mRNAs (RT-PCR)", "type": "cell-based, HSV-1 Glasgow strain 17", "method": "Vero cell monolayers were either mock infected or infected. The accumulation of α4 and α27 mRNAs from infected cells was determined as previously described [Lium and Silverstein 1997] by coupled reverse transcription (RT) and polymerase chain reaction (PCR) using the commercial kit, EZ rTth RNA PCR kit (Perkin-Elmer) as specified by the manufacturer with modifications. The primers used during RT were 4-2 and ICP27-L-RT [Lium and Silverstein 1997]. Following RT, secondary primers were added for PCR (4-1 and ICP27-U-RT) (55). These primers result in amplification of a 100 basepair (bp) fragment and a 220 bp fragment from the α4 and α27 genes, respectively.\nThe failure to detect virus specified polypeptides of any kinetic class in cells infected in the presence of CTC96 led us to ask if virus transcripts accumulated under these conditions. Accordingly, virus was incubated with 50 μg/ml of drug for 10 min and then either washed out by dilution and used to infect cells or used directly to infect cells. At 2 and 4 hr post infection cells were harvested and total infected cell RNA was prepared for analysis by RT-PCR for the presence of transcripts from the ∝4 and ∝27 genes. […] When these studies are carried out to as long as 8 hr pi there is still no detectable accumulation of virus-specified transcripts (data not shown). […] (FIG. 15)."}, "[6]": {"tested_on": "HSV-1"}, "[7]": {"tested_on": "Ad-CMV-null", "experiment": "Fluorescence focus assay, AdCMV-null on 293T cells", "type": "cell-based, adenovirus", "method": "A549 or 293 cell monolayers were infected with Ad2 or Ad-CMV-null at 0.1 fluorescence focus units (FFUs) per cell for 2 h in 2% BCS DMEM in the presence and absence of 50 μg/ml CTC-96. At 29 h postinfection the plates were washed twice with PBS and fixed with methanol for 4 min at room temperature. Cells were washed twice with PBS, incubated in 500 μl 1:100 rabbit polyclonal anti-adenovirus serum in PBS for 30 min at room temperature and washed with PBS. Plates were then incubated in 500 μl 1:40 goat anti-rabbit IgG conjugated FITC in PBS. Foci were visualized using a Leitz Dialux microscope with an optical system for the selective visualization of FITC and then counted.\n293T cells were plated on 35 mm dishes. Cells should be @5×10^6 cells/plate.\n293T Cells were infected with AdCMV-null @ moi=0.1 (i.e. 0.1 FFU/cell)\nvirus was diluted in D2 media +/− 50 μg/ml CTC96 D2=2% serum DMEM\nPlates were overlaid with 2.5 ml D2 +/− 50 μg/ml CTC96 and incub. @37° C. for 28 h (total)"}}, "note": "“Also recorded” adds a separate entry of the source. Where two headings read alike, the source gives them in different places.", "data": [{"smiles": "CC(/C=C(/C)[O-])=NCCN=C(C)/C=C(/C)[O-].Cc1ncc[nH]1.Cc1ncc[nH]1.[Br-].[Co+3]", "note": "[CTC-96]", "values": [{"measurement": "cells rounded (CPE)", "setting": "[1]; examined after fixation at 28 h", "value": "at least 50%"}, {"measurement": "cells off of plate", "setting": "[1]; examined after staining", "value": 50, "unit": "%"}, {"measurement": "remaining cells rounded up (CPE)", "setting": "[1]; examined after staining", "value": 50, "unit": "%"}, {"measurement": "cells positive for VZV", "setting": "[2]; Helf cells, in the presence of CTC-96", "value": "Very few cells were positive"}, {"measurement": "% Inhibition", "setting": "[2]; VZV (Ellen), Helt, 50 μg/ml of CTC-96, immunohistochemistry", "value": 100, "unit": "%"}, {"measurement": "adsorption (binding) of HSV-1 to Vero cell monolayers", "setting": "[3]", "value": "no effect"}, {"measurement": "effect on HSV-1 keratitis in the rabbit eye model", "setting": "[4]", "value": "reduce the corneal surface level of HSV-1 and facilitate the recovery from dendritic keratitis; also recorded: most potent inhibitory effect"}, {"measurement": "time in which the action of the drug occurs", "setting": "[5]", "value": "less than 10 min"}, {"measurement": "accumulation of α4 and α27 mRNAs", "setting": "[5]; 50 μg/ml present from onset of infection, 2 and 4 hr pi", "value": "neither the accumulation of α4 nor α27 mRNAs were detectable; also recorded: inhibits α4 and α27 gene expression"}, {"measurement": "accumulation of α4 and α27 mRNAs", "setting": "[5]; 50 μg/ml present from onset of infection, 2 and 4 hr pi, listed as CTC96", "value": "no accumulation"}, {"measurement": "accumulation of α4 and α27 mRNAs", "setting": "[5]; virus exposed to drug 10 min, drug then diluted/removed", "value": "began to accumulate"}, {"measurement": "accumulation of α4 and α27 mRNAs", "setting": "[5]; virus exposed to drug 10 min, drug then diluted/removed, listed as CTC96", "value": "A small amount of immediate early gene RNA is detected"}, {"measurement": "% Inhibition", "setting": "[6]; HSV-1 (17), Vero, 50 μg/ml of CTC-96, plaque assay", "value": 100, "unit": "%"}, {"measurement": "No. of Plaques", "setting": "[6]; Initial [Drug] 0.016 μg/ml, Final [Drug] 0.016 μg/ml", "value": 114}, {"measurement": "No. of Plaques", "setting": "[6]; Initial [Drug] 50 μg/ml, Final [Drug] 0.0083 μg/ml", "value": 46}, {"measurement": "No. of Plaques", "setting": "[6]; Initial [Drug] 50 μg/ml, Final [Drug] 50 μg/ml", "value": 0}, {"measurement": "No. of Plaques", "setting": "[6]; Initial [Drug] 100 μg/ml, Final [Drug] 0.0016 μg/ml", "value": 23}, {"measurement": "No. of Plaques", "setting": "[6]; Initial [Drug] 100 μg/ml, Final [Drug] 100 μg/ml", "value": 0}, {"measurement": "resistance to HSV-1 after prior incubation of Vero cell monolayers", "setting": "[6]; cells preincubated with 50 μg/ml CTC-96", "value": "partial resistance"}, {"measurement": "HSV-1 plaque formation", "setting": "[6]; concentrations of CTC-96 >50 μg/ml", "value": "completely inhibited"}, {"measurement": "HSV-1 plaque formation", "setting": "[6]; dilution of the drug after adsorption of the virus", "value": "only partially inhibited"}, {"measurement": "plaque formation / infectivity after prior exposure of the virus to the drug", "setting": "[6]; virus incubated with 50 μg/ml 30 min, drug diluted prior to adsorption", "value": "no effect on plaque formation; also recorded: slightly reduced the infectivity"}, {"measurement": "virus survived treatment", "setting": "[6]; virus suspension treated with drug 1 min, then diluted to final <1 ng/ml", "value": "~50", "unit": "%"}, {"measurement": "HSV-1 plaque formation", "setting": "[6]; ≧50 μg/ml of CTC-96", "value": "completely inhibited"}, {"measurement": "adenovirus foci", "setting": "[7]; 50 μg/ml, 293T cells, AdCMV-null moi 0.1, 28 h", "value": "NO FOCI ON EITHER PLATE"}, {"measurement": "% Inhibition", "setting": "[7]; Ad-CMV-null, 293T, 50 μg/ml of CTC-96, fluorescence focus assay", "value": 100, "unit": "%"}]}]}
